US12378178B2, “Oleic acid derivatives as treatments for Friedreich ataxia and inhibitors of ferroptosis” (THE TRUSTEES OF THE UNIVERSITY OF PENNSYLVANIA, priority 2019, dated 2025)
“Also recorded” adds a separate entry of the source.

Tests used:
[1] = system: human FRDA fibroblast line GM4078; test: Survival of human FRDA fibroblast line GM4078 treated with FAC and BSO; assay type: cell-based; details: for Relative to Oleic Acid (change in survival compared to cells treated with 40 μM oleic acid) / toxicity / activity in dose response: FAC and BSO; for toxicity: compound 40 μM; for activity in dose response: lower concentrations down to 5 μM; for activity: trifluoromethyl ketone and alcohol analogs
Protocol: To test the efficacy of the above compounds, they were tested at least at two different concentrations using human FRDA fibroblast line GM4078 treated with FAC and BSO and the change in survival compared to cells treated with 40 μM oleic acid was measured Table 2 has the results of the compounds tested at 40 μM.

[2] = system: mouse fibroblast I154F cell lines; test: Rescue of viability of murine I154F fibroblasts treated with FAC+BSO; details: for activity in FAC+BSO assay: following FAC+BSO treatment, concentration not given; for Relative to Oleic Acid: 1 = oleic acid, 0.5 = no rescue
[3] = system: human FRDA fibroblasts 3816; test: Rescue of human FRDA fibroblasts 3816 treated with erastin; assay type: cell-based; details: for survival: 10 μM erastin for 24 h (85% cell death)
[4] = system: immortalized human fibroblasts 3665-T cells; test: Survival of immortalized human fibroblasts 3665-T treated with FAC and BSO; assay type: cell-based; details: for survival: FAC and BSO (95% cell death)
Description: Stereospecific activity of the two enantiomers was confirmed using the immortalized human fibroblasts 3665-T cells, a more severe model of FRDA. […] (FIG. 2A).

[5] = system: murine fibroblast I154F cells; test: Lipid peroxidation in murine fibroblast I154F cells; assay type: cell-based
Protocol: The basal level of lipid peroxides was tested in the murine fibroblast I154F cells compared to the parental line 2F1 and a detectable higher level of lipid peroxides was found in the cells containing a missense frataxin (FIG. 3A).

lipoxygenases (Lox) = test: In vitro lipoxygenase activity assay; assay type: biochemical; details: compound at 1 nM and 10 nM; solubility problems precluded higher concentrations
Protocol: Oleic acid has been reported to inhibit soybean lipoxygenase, as well as human 15-lipoxygenase, by binding an allosteric site. […] Whether O[…] was inhibiting lipoxygenase activity was tested using an in vitro assay.

[6] = system: human FRDA fibroblasts 3816; test: Rescue of human FRDA fibroblasts 3816 treated with erastin; assay type: cell-based; details: erastin 5 μM; for survival: 48 h (erastin alone 32%)
Protocol: Addition of O[…] at 5 μM was sufficient to increase survival to 50% (1.5 fold) and at 10 μM and 20 μM survival went up to 80 and 84% (2.5 and 2.6 fold) respectively (FIG. 2B).

[7] = system: immortalized myoblast cell line transfected with a frataxin siRNA; test: Lipid peroxidation in immortalized myoblast cell line with frataxin siRNA knock-down; assay type: cell-based; details: compound 5 μM every 48 h post transfection
Protocol: Knocking-down frataxin in human fibroblasts results in increased lipid peroxidation, which could be easily measured when the cells were also treated with the ferroptosis inducer RSL-3. To test whether OA200R would be efficacious in the knock-down system, an immortalized myoblast cell line was transfected with a frataxin siRNA or a scrambled siRNA control. A 65% protein loss was achieved over 4 days and a statistically significant increase of lipid peroxidation (1.4 fold) compared to the cells transfected with a scrambled control.

PGC1-α = PGC1-α expression in human FRDA fibroblasts GM3816; assay type: cell-based; details: compound 16 μM; after 96 h
Protocol: Oleic acid, as well as other fatty acids of different length and degree of saturation, binds and activates the peroxisome proliferator-activated receptor gamma (PPAR-γ), a key regulator of glucose and lipid metabolism, which up-regulates PGC1-α, among other targets. Pioglitazone, a PPAR-γ agonist is a thiazolidinedione used to treat type-2 diabetes. […] Human FRDA fibroblasts GM3816 were treated with 10 μM pioglitazone and increased PGC1-α expression was measured starting at 48 h. The expression doubled at 96 h, a time frame sufficient for PGC1-α to have an effect in a typical FAC+BSO experiment, whereas 16 μM oleic acid increased PGC1-α expression only 1.4 fold after 96 h.

[8] = system: murine fibroblast I154F cells; test: Rescue from erastin-induced ferroptosis, murine I154F fibroblast model; assay type: cell-based; details: 5 μM erastin for 48 h (erastin alone 44%)
[9] = system: healthy human fibroblasts with frataxin knockdown; details: earlier work referred to in the text; cited from earlier work

## CCCCCC/C=C\CCCCCCCCC(O)C(F)(F)F (racemic) [[rac]-HA-200]
[1]; tested at 40 μM
  Relative to Oleic Acid (change in survival compared to cells treated with 40 μM oleic acid): 0.56 ± 0.03

## CCCCCCCC/C=C\CCCCCCCC(O)C(F)(F)F (racemic) [[rac]-OA-200, (Z)-1,1,1-trifluorononadec-10-en-2-ol]
[1]; 10 μM printed beside the value
  Relative to Oleic Acid (change in survival compared to cells treated with 40 μM oleic acid): 0.67 ± 0.17
[1]; cells treated with FAC and BSO, or with erastin
  potency in rescuing cell viability compared with oleic acid: significantly more potent than oleic acid
[1]
  toxicity: slightly toxic
  activity in dose response: active

## CCCCCCCCCC(=O)O [Capric Acid]
[2]
  activity in FAC+BSO assay: inactive
[2]; tested at 40 μM, <0.5 toxic
  Relative to Oleic Acid: 0.49 ± 0.09

## CCCCCC/C=C\CCCCCCCCCC(=O)O [Cis-Vaccenic Acid]
[2]; compound 40 μM
  efficacy in FAC+BSO assay: comparable to oleic acid
[2]; tested at 40 μM, <0.5 toxic
  Relative to Oleic Acid: 1.00 ± 0.08

## CCCCCCCC/C=C/CCCCCCCC(=O)O [Elaidic Acid]
[2]; compound 40 μM
  efficacy in FAC+BSO assay: slightly toxic
[2]; compound 160 μM
  efficacy in FAC+BSO assay: somehow effective
[2]; tested at 40 μM, <0.5 toxic
  Relative to Oleic Acid: 0.30 ± 0.08

## CCCCCCCC/C=C\CCCCCCCCCCCC(=O)O [Erucic add]
[2]; compound 40 μM
  efficacy in FAC+BSO assay: comparable to oleic acid
[2]; tested at 40 μM, <0.5 toxic
  Relative to Oleic Acid: 0.93 ± 0.07

## CCCCCCCCCC/C=C\CCCCCCCC(=O)O [Gadoleic acid]
[2]; compound 40 μM
  efficacy in FAC+BSO assay: comparable to oleic acid
[2]; tested at 40 μM, <0.5 toxic
  Relative to Oleic Acid: 0.77 ± 0.16

## CCCCCC/C=C\CCCCCCCCC(=O)C(F)(F)F [HA-210]
[1]; tested at 40 μM
  Relative to Oleic Acid (change in survival compared to cells treated with 40 μM oleic acid): 0.35 ± 0.02

## CCCCCCCCCCCC(=O)O [Lauric Acid]
[2]
  activity in FAC+BSO assay: inactive
[2]; tested at 40 μM, <0.5 toxic
  Relative to Oleic Acid: 0.47 ± 0.12

## CCCCCCCCCCCCCC(=O)O [Myristic Acid]
[2]; tested at 40 μM, <0.5 toxic
  Relative to Oleic Acid: 0.11 ± 0.02

## CCCCCCCC/C=C\CCCCCCC[C@@H](O)C(F)(F)F [OA200R, (R,Z)-1,1,1-trifluorononadec-10-en-2-ol]
[3]; compound 5 μM
  survival: 48%
[3]; compound 10 μM
  survival: 87%
[3]; compound 20 μM
  survival: 88%
[1]; rescue of cell viability, assay not given
  potency of (R)-enantiomer relative to (S)-enantiomer: seven-fold
[1]; assay not given
  activity: activity resides in the (R) enantiomer
[4]; compound 10 μM
  survival: 25%
[4]; compound 20 μM
  survival: 77%
[4]; compound 40 μM
  survival: 95%
[5]
  concentration at which reduction of lipid peroxidation reached statistical significance: 5 µM
[5]; basal lipid peroxides
  lipid peroxidation: reduced lipid peroxidation in a dose-dependent manner
Lipoxygenases (Lox)
  Lox enzymatic activity: did not affect Lox enzymatic activity; also recorded: does not inhibit
[6]; compound 5 μM, 48 h
  increase of survival: 1.5 fold
[6]; compound 5 μM
  survival: 50%
[6]; compound 10 μM, 48 h
  increase of survival: 2.5 fold
[6]; compound 10 μM
  survival: 80%
[6]; compound 20 μM, 48 h
  increase of survival: 2.6 fold
[6]; compound 20 μM
  survival: 84%
[7]
  decreased lipid peroxidation: 20%

## CCCCCCCCC=CCCCCCCCC(=O)NO [OA310]
[2]; 10 μM
  Relative to Oleic Acid: 1.04 ± 0.04

## CCCCCCCCC1OC1CCCCCCCC(=O)O (stereo not shown) [OA-50]
[1]; tested at 40 μM
  Relative to Oleic Acid (change in survival compared to cells treated with 40 μM oleic acid): 0.15 ± 0.02

## CCCCCCCCC(O)C(O)CCCCCCCC(=O)O (stereo not shown) [OA-81]
[1]; tested at 40 μM
  Relative to Oleic Acid (change in survival compared to cells treated with 40 μM oleic acid): 0.14 ± 0.03

## CCCCCCCCC1OC(C)(C)OC1CCCCCCCC(=O)O (stereo not shown) [OA-90]
[1]; tested at 40 μM
  Relative to Oleic Acid (change in survival compared to cells treated with 40 μM oleic acid): 0.05 ± 0.02

## CCCCCCCCC1OC2(CCCCC2)OC1CCCCCCCC(=O)O (stereo not shown) [OA-95]
[1]; tested at 40 μM
  Relative to Oleic Acid (change in survival compared to cells treated with 40 μM oleic acid): 0.24 ± 0.04

## CCCCCCCC/C=C\CCCCCCCC(=O)C(F)(F)F [OA-210, (Z)-1,1,1-trifluorononadec-10-en-2-one]
[1]; 10 μM printed beside the value
  Relative to Oleic Acid (change in survival compared to cells treated with 40 μM oleic acid): 0.52 ± 0.13
[1]
  toxicity: slightly toxic
  activity in dose response: active

## CCCCCCCC/C=C\CCCCCCCC(N)=O [Oleic Acid NH2]
[2]; tested at 40 μM, <0.5 toxic
  Relative to Oleic Acid: 0.79 ± 0.13

## CCCCCCCC/C=C\CCCCCCCC(=O)OCC [Oleic Acid OEt]
[2]; tested at 40 μM, <0.5 toxic
  Relative to Oleic Acid: 0.77 ± 0.18

## CCCCCCCC/C=C\CCCCCCCC(=O)OC [Oleic Acid OMe]
[2]; tested at 40 μM, <0.5 toxic
  Relative to Oleic Acid: 0.95 ± 0.12

## CCCCCCCC/C=C\CCCCCCCC(=O)O [Oleic Acid]
[3]; compound 40 μM, 10 μM erastin for 24 h
  rescue of cell viability: did not rescue cell viability
[2]; compound 16 μM, FAC+BSO
  effect on cell survival: doubled cell survival
[2]; compound 40 μM
  efficacy in FAC+BSO assay: doubled survival
[2]; read-out: EC50 in the FAC+BSO in mouse fibroblasts assay, FAC+BSO
  EC50: 23 µM
[2]; tested at 40 μM, <0.5 toxic
  Relative to Oleic Acid: 1.03 ± 0.04
PGC1-α
  increase of PGC1-α expression: 1.4 fold
[8]; compound 5 μM
  cell survival: 49%
[8]; compound 10 μM
  cell survival: 55%
[8]; compound 20 μM
  cell survival: 65%
[6]; compound 20 μM, 48 h
  increase of survival: 1.5 fold

## CCCCCCCCCCCCCCCC(=O)O [Palmitic Acid]
[2]; tested at 40 μM, <0.5 toxic
  Relative to Oleic Acid: 0.18 ± 0.07

## CCCCCC/C=C\CCCCCCCC(=O)O [Palmitoleic Acid]
[2]; 20 μM
  Relative to Oleic Acid: 0.73 ± 0.04
[2]; compound 40 μM
  efficacy in FAC+BSO assay: comparable to oleic acid
[2]; tested at 40 μM, <0.5 toxic
  Relative to Oleic Acid: 0.77 ± 0.03

## CCCCCCCCCCC/C=C\CCCCC(=O)O [Petrosenilic Acid]
[2]; compound 40 μM
  efficacy in FAC+BSO assay: comparable to oleic acid
[2]; tested at 40 μM, <0.5 toxic
  Relative to Oleic Acid: 0.74 ± 0.04

## CCCCCCCC/C=C\CCCCCCC[C@H](O)C(F)(F)F [S-isomer, (S,Z)-1,1,1-trifluorononadec-10-en-2-ol]
[3]; any concentration, 10 μM erastin for 24 h
  activity: inactive
[1]; assay not given
  activity: inactive
[4]; compound 5 μM, FAC and BSO
  efficacy: inefficacious
[4]; compound 20 μM
  survival: 10%
[4]; compound 40 μM
  survival: 22%
[6]; compound between 20 and 5 μM, 48 h
  activity: no activity

## CCOC(=O)c1ccc(NC2CCCCC2)c(NCc2ccccc2)c1 [SRS11-92]
[9]
  cell death associated with frataxin knockdown: decreased the cell death

## CCCCCCCCCCCCCCCCCC(=O)O [Stearic Acid]
[2]; compound 16 μM, FAC+BSO
  effect on cell survival: no effect
[2]; tested at 40 μM, <0.5 toxic
  Relative to Oleic Acid: 0.50 ± 0.06

## CCCCC/C=C\C/C=C\CCCCCCCC(=O)O [linoleic acid]
[2]; compound 16 μM, FAC+BSO (alone 40% of control cells)
  cell viability: 30 % of control cells

## CCCCC/C=C\C/C=C\C/C=C\CCCCC(=O)O [γ-linolenic Acid]
[2]
  activity in FAC+BSO assay: increased cell death
[2]; tested at 40 μM, <0.5 toxic
  Relative to Oleic Acid: 0.16 ± 0.02

## Heptadecenoic acid
[2]; 20 μM
  Relative to Oleic Acid: 0.7 ± 0.05
[2]; tested at 40 μM, <0.5 toxic
  Relative to Oleic Acid: 0.83 ± 0.05
